This note sets out measurements from PMC5808083, “Carfilzomib resistance due to ABCB1/MDR1 overexpression is overcome by nelfinavir and lopinavir in multiple myeloma” (Leukemia, 2017).

The IC50 is the midpoint of a concentration-inhibition curve. Read a high IC50 as weaker potency.

pIC50: −log10 of the molar value. Read-outs that look alike come from different tables or passages of the source.

One series deals with T1, AMO-BTZ.
T1 construct: AMO-1 derived, bortezomib-adapted
Description: cells. To be noted: Homo sapiens, AMO1, 48 h. Details: species or system AMO-1, AMO-CFZ and AMO-CFZ clones #1 and #7; cell viability, MTS tetrazolium (CellTiter 96 AQueous One Solution), continuous treatment. Here is the method: (§1) Generation of AMO-CFZ Ub-G67V-GFP cells AMO-CFZ cells were electroporated with a plasmid containing Ub-G76V-GFP [1] (obtained from Nico Dantuma; Addgene plasmid #11941) and subsequently cultured in the presence of selecting antibiotic G418 (500ng/ml, Gibco/Invitrogen, MA, USA). Subclones were obtained using MethoCult (StemCell Technologies, USA) and the clone with highest accumulation of fluorescence after BTZ treatment was chosen for further analysis. Assessment of cell viability Viability of cell lines was determined after 48h of treatment by MTS tetrazolium compound using CellTiter 96® AQueous One Solution) (Promega, WI, USA) according to manufactures protocol. PgP-Glo assay PgP-Glo assay (Promega, WI, USA) was performed according to manufacturer recommendations. Figure 2 Comparison of dose–response of AMO-1 (sensitive) vs AMO-BTZ and AMO-CFZ (resistant) cells treated with PIs (BTZ and CFZ). (a) Residual activity of proteasome subunits visualized by activity-based probe labeling in intact cells after 1 h pulse treatment with indicated PIs. (b) Cell viability was measured after 48 hours of continuous treatment. Corresponding IC50 values are presented in Supplementary Table S2. Figure 7 Sensitivity profile of ABCB1 inhibitors co-treatment with PIs used in the clinic or in clinical development in AMO-1, AMO-BTZ and AMO-CFZ cell lines. […]

A further series concerns T2, AMO-CFZ.
T2 construct: AMO-1 derived, carfilzomib-adapted, ABCB1 overexpressing
Description: cells. To be noted: Homo sapiens, AMO1, 48 h; for IC50: PI alone. Details: species or system AMO-1, AMO-BTZ, AMO-CFZ and AMO-CFZ clones #1 and #7; cell viability, MTS tetrazolium (CellTiter 96 AQueous One Solution), continuous treatment. Here is the method:
(§2) Generation of AMO-CFZ Ub-G67V-GFP cells AMO-CFZ cells were electroporated with a plasmid containing Ub-G76V-GFP [1] (obtained from Nico Dantuma; Addgene plasmid #11941) and subsequently cultured in the presence of selecting antibiotic G418 (500ng/ml, Gibco/Invitrogen, MA, USA). Subclones were obtained using MethoCult (StemCell Technologies, USA) and the clone with highest accumulation of fluorescence after BTZ treatment was chosen for further analysis. Assessment of cell viability Viability of cell lines was determined after 48h of treatment by MTS tetrazolium compound using CellTiter 96® AQueous One Solution) (Promega, WI, USA) according to manufactures protocol. PgP-Glo assay PgP-Glo assay (Promega, WI, USA) was performed according to manufacturer recommendations.  Figure 2 Comparison of dose–response of AMO-1 (sensitive) vs AMO-BTZ and AMO-CFZ (resistant) cells treated with PIs (BTZ and CFZ). (a) Residual activity of proteasome subunits visualized by activity-based probe labeling in intact cells after 1 h pulse treatment with indicated PIs. (b) Cell viability was measured after 48 hours of continuous treatment. Corresponding IC50 values are presented in Supplementary Table S2.  Figure 7 Sensitivity profile of ABCB1 inhibitors co-treatment with PIs used in the clinic or in clinical development in AMO-1, AMO-BTZ and AMO-CFZ cell lines. Dose–response curves of PI co-treated with NFV (10 μM) and LPV (10 μM). Corresponding IC50 values are presented in Supplementary Table S7.

Series [1] has as its system T3, AMO-CFZ clone #1 (upregulated ABCB1).
T3 construct: AMO-1 derived, carfilzomib-adapted, clone 1 CRISPR/Cas9 clone retaining ABCB1 overexpression
Briefly: cells. To be noted: ABCB1 upregulated clone #1. Details: species or system AMO-CFZ clones 1 and 7; Cytotoxicity dose-response of myeloma drugs on AMO-CFZ clones with or without ABCB1, IC50. The source says: (§3) To dissect the role of ABCB1 overexpression for the activity of standard myeloma drugs we compared the cytotoxic effects of such drugs on AMO-CFZ cells with (clone #1) or without such ABCB1 expression (clone 7) (Figure 3c and Supplementary Table S4). To score for good versus poor ABCB1-substrate myeloma drugs, we calculated the ratio of IC50 values between the ABCB1-containing and the ABCB1-deficient clone for each of the myeloma drug. […] (a) Western blot evaluation of the ABCB1 depletion in AMO-CFZ clones obtained by CRISPR/Cas9 genome editing tool. (b) Dose–response of AMO-CFZ clones with depleted ABCB1 to CFZ. Corresponding IC50 values are presented in Supplementary Table S3. (c) Dose–response of selected AMO-CFZ clones 1 and 7 to CFZ and convectional drugs used in the treatment of MM. (d) Dose–response of AMO-CFZ clones 1 and 7 to approved PI or those in clinical development. Corresponding IC50 values are presented in Supplementary Table S4. To directly address the functional role of ABCB1 for CFZ resistance, we eliminated ABCB1 protein in AMO-CFZ cells by CRISPR/Cas9 (for example, clone 7) (Figure 3a). We observed an inverse correlation between the levels of ABCB1 and myeloma cell sensitivity to CFZ (Figure 3b, Supplementary Table S3). […] Overexpressed ABCB1 is therefore a therapeutic target for CFZ-resistant myeloma.

The test system of series [2] is T4, AMO-CFZ clone #7 (depleted ABCB1).
T4 construct: AMO-1 derived, carfilzomib-adapted, clone 7 ABCB1 depleted by CRISPR/Cas9 (subtotal elimination)
Briefly: cells. Details: species or system AMO-CFZ clones 1 and 7; Cytotoxicity dose-response of myeloma drugs on AMO-CFZ clones with or without ABCB1, IC50. To be noted: ABCB1 depleted clone #7.
Source text: as §3

The subject of a further series is AMO-1. Briefly: cells. Details: species or system AMO-BTZ, AMO-CFZ and AMO-CFZ clones #1 and #7; cell viability, MTS tetrazolium (CellTiter 96 AQueous One Solution), continuous treatment. To be noted: Homo sapiens, AMO1, 48 h. Here is the method:
as §1

Series [3] relates to T3, AMO-CFZ clone #1 (upregulated ABCB1). Briefly: cells. Details: species or system AMO-1, AMO-BTZ, AMO-CFZ and AMO-CFZ clones #1 and #7; cell viability, MTS tetrazolium (CellTiter 96 AQueous One Solution), continuous treatment. To be noted: Homo sapiens, AMO1, 48 h; CFZ alone. Here is the method:
as §2

For series [4] the test system is unchanged. Description: cells. To be noted: Homo sapiens, AMO1, 48 h; CFZ alone. Details: species or system AMO-1, AMO-BTZ, AMO-CFZ and AMO-CFZ clones #1 and #7; cell viability, MTS tetrazolium (CellTiter 96 AQueous One Solution), continuous treatment. Here is the method:
as §1
The source holds these as a separate data set.

For the next series, the target named is ABCB1 (Homo sapiens, UniProt P08183). Description: MitoTracker Green FM and MVB003 efflux (flow cytometry) in ABCB1-overexpressing AMO-CFZ cells. On the technique in general: Flow cytometry measures light scatter and fluorescence of single cells or particles in a stream.
Chain of ABCB1 (P08183 whole entry): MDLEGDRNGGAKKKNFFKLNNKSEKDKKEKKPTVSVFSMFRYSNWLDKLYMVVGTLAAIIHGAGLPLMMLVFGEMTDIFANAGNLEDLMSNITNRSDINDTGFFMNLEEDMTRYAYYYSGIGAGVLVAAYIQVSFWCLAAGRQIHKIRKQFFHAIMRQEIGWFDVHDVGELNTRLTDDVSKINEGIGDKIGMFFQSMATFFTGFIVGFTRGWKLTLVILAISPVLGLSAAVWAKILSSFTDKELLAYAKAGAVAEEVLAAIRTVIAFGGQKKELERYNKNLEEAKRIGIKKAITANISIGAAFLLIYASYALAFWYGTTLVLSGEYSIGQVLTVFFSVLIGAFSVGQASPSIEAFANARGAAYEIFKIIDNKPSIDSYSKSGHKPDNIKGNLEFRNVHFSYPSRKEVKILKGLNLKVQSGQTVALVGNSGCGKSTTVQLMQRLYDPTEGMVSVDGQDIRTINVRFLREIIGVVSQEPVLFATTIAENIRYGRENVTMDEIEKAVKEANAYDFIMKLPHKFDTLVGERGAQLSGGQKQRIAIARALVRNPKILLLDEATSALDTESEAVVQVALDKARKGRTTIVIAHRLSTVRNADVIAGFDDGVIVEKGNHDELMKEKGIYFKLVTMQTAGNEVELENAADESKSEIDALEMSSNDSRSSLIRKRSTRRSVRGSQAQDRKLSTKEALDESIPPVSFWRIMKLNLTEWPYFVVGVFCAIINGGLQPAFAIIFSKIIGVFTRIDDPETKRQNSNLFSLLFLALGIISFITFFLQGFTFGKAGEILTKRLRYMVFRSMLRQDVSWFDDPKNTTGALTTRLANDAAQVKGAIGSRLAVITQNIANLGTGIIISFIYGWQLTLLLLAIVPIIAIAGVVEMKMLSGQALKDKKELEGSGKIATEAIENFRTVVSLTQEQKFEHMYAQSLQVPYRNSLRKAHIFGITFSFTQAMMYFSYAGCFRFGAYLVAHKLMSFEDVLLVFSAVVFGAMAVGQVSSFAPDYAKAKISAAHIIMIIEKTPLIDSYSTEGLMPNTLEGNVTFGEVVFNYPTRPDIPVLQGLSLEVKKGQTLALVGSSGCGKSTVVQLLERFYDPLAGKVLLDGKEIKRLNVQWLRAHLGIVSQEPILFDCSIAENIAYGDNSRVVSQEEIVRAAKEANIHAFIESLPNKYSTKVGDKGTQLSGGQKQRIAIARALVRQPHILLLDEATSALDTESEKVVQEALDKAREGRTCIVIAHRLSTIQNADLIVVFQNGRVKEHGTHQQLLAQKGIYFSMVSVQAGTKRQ

On to `CC(C)C[C@H](NC(=O)[C@H](Cc1ccccc1)NC(=O)c1cnccn1)B(O)O` [BTZ, bortezomib], for which the pIC50 in the series on AMO-BTZ (read-out: BTZ) was 5.87; in the series with AMO-CFZ (read-out: BTZ), 7.05; in series [1] it was 7.16; in series [2], 7.57; in the series on AMO-1 (read-out: BTZ), 8.20. Also, in the series on AMO-CFZ, the IC50 is 156 nM.
For `CC(C)C[C@H](NC(=O)[C@H](CCc1ccccc1)NC(=O)CN1CCOCC1)C(=O)N[C@@H](Cc1ccccc1)C(=O)N[C@@H](CC(C)C)C(=O)[C@@]1(C)CO1` [CFZ, carfilzomib], the pIC50 with AMO-BTZ (read-out: CFZ) is 7.17; in the series on AMO-CFZ (read-out: CFZ), 6.05; in series [1], 6.21; in series [2], 7.11; with AMO-1 (read-out: CFZ), 8.32. For the same compound, the IC50 in series [3] is 824 nM; in series [4] it was 796 nM.
Turning to `CC(C)C[C@H](NC(=O)[C@@H](NC(=O)c1cccc(-c2ccccc2)n1)[C@@H](C)O)B(O)O` [Delanzomib], in the series on AMO-CFZ, 1040 nM corresponded to half-maximal inhibition (IC50). For the same compound, the values for the pIC50 in series [1] and in series [2] were 6.53 and 7.09, respectively.
Taken in the same sequence, the figures for `CC(C)C[C@H](NC(=O)CNC(=O)c1cc(Cl)ccc1Cl)B(O)O` [Ixazomib] were 1280 nM, 6.16 and 6.46.
For `C[C@@]12OC(=O)[C@]1([C@@H](O)[C@@H]1C=CCCC1)NC(=O)[C@@H]2CCCl` [Marizomib], the pIC50 is 7.21 in series [1] and 7.48 in series [2].
`COC[C@H](NC(=O)c1cnc(C)s1)C(=O)N[C@@H](COC)C(=O)N[C@@H](Cc1ccccc1)C(=O)[C@@]1(C)CO1` [Oprozomib] came in with a half-inhibitory concentration (IC50) in the series with AMO-CFZ of 1320 nM. The values for the pIC50 in series [1] and in series [2] were 5.83 and 6.66, respectively.
For the compound `Cc1[nH]c2ccccc2c1CCNCc1ccc(/C=C/C(=O)NO)cc1` [Panobinostat], the pIC50 in series [1] was 6.66; in series [2], 7.31.
Turning to `COC(=O)[C@H]1[C@H]2C[C@@H]3c4[nH]c5cc(OC)ccc5c4CCN3C[C@H]2C[C@@H](OC(=O)c2cc(OC)c(OC)c(OC)c2)[C@@H]1OC` [RSP, reserpine], the “MitoTracker Green FM and MVB003 efflux (flow cytometry) in ABCB1-overexpressing” value on ABCB1 is “Addition of VPM or reserpine (RSP) in the micromolar range led to a sizable, dose-dependent increase in cellular fluorescence”.
